Measured values: paper PMC9044501 (Journal of molecular biology, 2021)

Tests used:
[1] = biological target: T1, myosin in bovine cardiac synthetic thick filaments (BcSTF) (Bos taurus, UniProt Q9BE39); assay: Single mant-ATP turnover kinetics in BcSTF; assay type: biochemical
[2] = biological target: T2, bovine cardiac myofibrils (BcMF) (Bos taurus, UniProt Q9BE39); assay: Single mant-ATP turnover kinetics in BcMF; assay type: biochemical
[3] = biological target: T3, human β-cardiac 25-hep HMM (Homo sapiens, UniProt P12883); assay: SEC-MALS-DLS light scattering of 25-hep HMM; settings: at 20 μM mavacamten and 50 μM para-nitroblebbistatin
[4] = biological target: T1, myosin in bovine cardiac synthetic thick filaments (BcSTF); assay: Basal myosin ATPase activity; assay type: biochemical; settings: read-out: Basal ATPase (BcSTF) IC50, 1 μM myosin, 23°C
[5] = biological target: T3, human β-cardiac 25-hep HMM; assay: Small-angle X-ray scattering; settings: at 20 μM mavacamten and 50 μM para-nitroblebbistatin
[6] = biological target: T2, bovine cardiac myofibrils (BcMF); assay: Myofibrillar ATPase activity at pCa 6; assay type: biochemical; settings: read-out: Myofibrillar ATPase (BcMF) IC50, pCa 6, 23°C
[7] = tested on: myosin; assay: Blebbistatin binding to myosin in the presence of mavacamten; settings: Fig. S2

T2 sequence (Q9BE39 whole entry): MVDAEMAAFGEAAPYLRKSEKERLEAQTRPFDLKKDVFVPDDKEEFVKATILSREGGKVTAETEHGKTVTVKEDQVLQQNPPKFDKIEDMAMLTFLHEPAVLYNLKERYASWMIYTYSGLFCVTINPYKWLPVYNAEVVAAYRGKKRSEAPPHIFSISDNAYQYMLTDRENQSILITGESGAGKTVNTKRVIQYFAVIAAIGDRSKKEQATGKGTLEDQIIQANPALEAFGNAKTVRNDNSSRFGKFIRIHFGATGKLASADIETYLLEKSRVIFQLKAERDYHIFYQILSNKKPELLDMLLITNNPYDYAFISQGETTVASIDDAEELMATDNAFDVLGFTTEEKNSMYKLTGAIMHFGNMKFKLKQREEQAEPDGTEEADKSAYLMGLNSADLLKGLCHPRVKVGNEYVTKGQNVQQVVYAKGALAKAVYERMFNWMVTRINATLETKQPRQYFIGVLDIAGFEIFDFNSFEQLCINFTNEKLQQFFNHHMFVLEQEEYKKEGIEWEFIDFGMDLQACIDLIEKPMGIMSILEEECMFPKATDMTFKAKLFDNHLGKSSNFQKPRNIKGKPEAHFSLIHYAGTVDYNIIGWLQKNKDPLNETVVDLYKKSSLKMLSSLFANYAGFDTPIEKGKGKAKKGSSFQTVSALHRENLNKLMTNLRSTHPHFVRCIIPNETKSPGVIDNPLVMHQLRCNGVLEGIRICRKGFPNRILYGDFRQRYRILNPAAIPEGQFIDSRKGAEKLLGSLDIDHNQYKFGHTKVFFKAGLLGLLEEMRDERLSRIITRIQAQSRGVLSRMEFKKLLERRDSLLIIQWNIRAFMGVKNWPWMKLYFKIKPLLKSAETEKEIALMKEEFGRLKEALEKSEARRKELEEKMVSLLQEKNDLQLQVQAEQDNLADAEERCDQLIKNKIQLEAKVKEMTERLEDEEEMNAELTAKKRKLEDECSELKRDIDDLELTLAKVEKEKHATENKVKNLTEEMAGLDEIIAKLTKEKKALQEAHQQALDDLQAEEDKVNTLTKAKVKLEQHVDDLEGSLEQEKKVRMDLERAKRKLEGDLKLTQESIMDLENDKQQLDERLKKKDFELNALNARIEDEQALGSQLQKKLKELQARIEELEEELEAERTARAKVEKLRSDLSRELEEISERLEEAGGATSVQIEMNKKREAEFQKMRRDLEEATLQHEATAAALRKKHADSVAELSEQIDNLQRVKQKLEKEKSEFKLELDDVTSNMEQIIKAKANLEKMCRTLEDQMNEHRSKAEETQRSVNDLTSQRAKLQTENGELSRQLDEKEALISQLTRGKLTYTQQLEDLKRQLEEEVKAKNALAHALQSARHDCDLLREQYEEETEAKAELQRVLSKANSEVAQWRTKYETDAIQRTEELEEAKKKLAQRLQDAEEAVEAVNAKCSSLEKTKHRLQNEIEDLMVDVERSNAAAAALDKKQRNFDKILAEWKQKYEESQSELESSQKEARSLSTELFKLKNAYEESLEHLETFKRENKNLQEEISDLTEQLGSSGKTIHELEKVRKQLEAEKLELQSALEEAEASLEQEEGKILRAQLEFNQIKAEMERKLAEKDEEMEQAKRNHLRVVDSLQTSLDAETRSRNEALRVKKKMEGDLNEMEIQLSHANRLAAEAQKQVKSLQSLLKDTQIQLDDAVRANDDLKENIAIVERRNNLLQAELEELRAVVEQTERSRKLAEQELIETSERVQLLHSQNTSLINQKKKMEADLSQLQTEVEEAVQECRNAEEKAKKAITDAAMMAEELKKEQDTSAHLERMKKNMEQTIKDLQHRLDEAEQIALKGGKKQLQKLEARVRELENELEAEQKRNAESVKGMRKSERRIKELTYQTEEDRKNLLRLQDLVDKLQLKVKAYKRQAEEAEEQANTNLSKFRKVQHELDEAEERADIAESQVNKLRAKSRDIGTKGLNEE
T2 sequence (P85100 whole entry partner): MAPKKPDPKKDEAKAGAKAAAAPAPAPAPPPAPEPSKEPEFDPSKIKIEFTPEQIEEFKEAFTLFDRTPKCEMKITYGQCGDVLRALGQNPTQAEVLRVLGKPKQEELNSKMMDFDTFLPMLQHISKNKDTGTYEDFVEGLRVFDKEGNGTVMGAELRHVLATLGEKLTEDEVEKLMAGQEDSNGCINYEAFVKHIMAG
T2 sequence (Q3SZE5 whole entry partner): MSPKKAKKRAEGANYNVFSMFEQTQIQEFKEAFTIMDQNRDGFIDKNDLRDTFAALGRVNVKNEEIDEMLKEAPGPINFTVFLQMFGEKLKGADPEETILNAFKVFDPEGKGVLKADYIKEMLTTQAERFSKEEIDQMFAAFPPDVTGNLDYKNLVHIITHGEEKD
T1 sequence (Q9BE39 whole entry): as the sequence (Q9BE39 whole entry) above
T1 sequence (P85100 whole entry partner): as the sequence (P85100 whole entry partner) above
T1 sequence (Q3SZE5 whole entry partner): as the sequence (Q3SZE5 whole entry partner) above

For CC(C)n1c(=O)cc(N[C@@H](C)c2ccccc2)[nH]c1=O [Mavacamten, mavacamten], the Hill coefficient ([1]; DRX to SRX shift, up to 3.125 μM) was 2–4, the “magnitude of myosin SRX population” value ([1]; saturating concentrations) was ~ 100% and the “magnitude of myosin SRX population” value ([2]; saturating concentrations) was ~ 65%.

With Cc1ccc2c(c1)C(=O)[C@]1(O)CCN(c3ccc([N+](=O)[O-])cc3)C1=N2 [Para-nitroblebbistatin, para-nitroblebbistatin] the “Hydrodynamic radius of 25-hep HMM (DLS)” value [3] was 84.1±2.2 Å, the “Molecular Mass of 25-hep HMM (MALS)” value [3] was 363±14 kDa and the IC50 [4] was 2.37 ± 0.12 µM. The “I(0), Guinier Analysis” value [5] was 0.04 ± 0.01 cm⁻¹, the “I(0), P(r) Analysis” value [5] was 0.04 ± 0 cm⁻¹ and the “Porod volume, P(r) Analysis” value [5] was 1.42e6 Å^−3. For the same molecule, the “Rg, Guinier Analysis” value [5] was 102.5±1.5 Å, the “Rg, P(r) Analysis” value [5] was 124±10 Å and the “reduction of Rg (Guinier) compared to untreated 25-hep HMM” value [5] was 14%. The “reduction of Rg (P(r) analysis) compared to untreated 25-hep HMM” value [5] was 11%, the “lifetime of mant-nucleotides for compound-bound myosin” value ([1]; experiment duration 2400 s) was greater than 2400 s and the IC50 ([1]; read-out: DRX ATPase Rate, kfast (BcSTF), half-maximal decrease, 0μM blebbistatin) was greater than 12.5 µM. For the same molecule, the EC50 ([1]; read-out: SRX Amplitude, Aslow (BcSTF), half-maximal increase, 0μM blebbistatin) was greater than 12.5 µM, the IC50 [6] was 4.05 ± 0.34 µM and the IC50 ([2]; read-out: DRX ATPase Rate, kfast (BcMF), half-maximal decrease) was greater than 12.5 µM. It also gave an EC50 ([2]; read-out: SRX Amplitude, Aslow (BcMF), half-maximal increase) greater than 12.5 µM.

Cc1ccc2c(c1)C(=O)C1(O)CCN(c3ccccc3)C1=N2 (centres unmarked) [blebbistatin] was tested, and the “binding of blebbistatin in the presence of mavacamten” value [7] was “not compromised”.
